Results reported in US20110053859A1, “METHODS TO REDUCE THE EFFECTS OF SLEEP DEPRIVATION” (The U. S. Government Respresented by the Department of …, priority 2007, published 2011).
“Also recorded” adds a separate entry of the source.

Experiments:
[1] = tested on: alert non sleep deprived monkeys; test: Multi-image delayed match to sample (DMS) task in alert non-sleep-deprived monkeys; type: in vivo, rhesus monkeys (Macaca mulatta); conditions: for DMS performance vs saline control: IV 10.0 μg/kg, all 8 monkeys
Source text: (§1) Subjects: All procedures were reviewed and approved by the Institutional Animal Care and Use Committee of Wake Forest University, and performed in accordance with established practices as described in the National Institutes of Health Guide for Care and Use of Laboratory Animals. Eight adult male rhesus monkeys (Macaca mulatta) weighing (8.0-11.0 kg) were utilized in this study. They were individually housed in stainless steel cages in temperature and humidity controlled colony rooms with lighting maintained on a 0600:1800 on:off schedule and fed a diet of monkey chow supplemented by fresh fruit to maintain daily monitored body weight. Fluid intake was restricted in time and amount such that a prescribed volume of an animal's normal daily fluid intake (80 ml/kg) was received either during the behavioral testing session, or within 2 hours of being returned to the home cage.
(§2) Behavioral Testing: Each monkey was exposed to 6 different testing conditions (Normal Vehicle, Alert orexin-A (IV and nasal), Sleep Deprivation, Sleep Deprivation+orexin-A (IV or nasal) which required 11-14 test sessions for each of the 8 monkeys. Animals were placed in a primate chair 1.5 meters in front of an LCD-front-projection screen for daily testing on a multi-image visual delayed match to sample (DMS) task (Porrino 2005) and performed 150-300 trials per session. Animals were trained to move a cursor tracked by a fluorescent marker attached to the back of the monkey's hand into the images by positioning the hand within a two dimensional coordinate system on the chair counter. Stimuli consisted of clip art images projected as 25 cm squares within a 3×3 position matrix onto a 1.0 meter×1.0 meter display. Responses to appropriate stimuli were rewarded with diluted fruit juice delivered via a sipper tube placed in front of the mouth. All animals were trained to a stable baseline on the DMS task in which delay varied randomly from (range 1-60 sec to 1-90 sec across animals) on a given trial, and the number of non-match stimuli (images) varied randomly from 2 to 8 in the Match phase of the task (Porrino 2005). As shown previously performance accuracy varied directly with duration of delay and number of nonmatch images (#images) presented in the Match phase (Hampson 2004, Porrino 2005). Each stimulus image (sample or nonmatch) was used on only one trial during a daily session and the sets of images were routinely changed every two weeks to maintain the trial unique feature of each session. Performance was monitored daily on the DMS task and there was no testing on weekends.
Drug Administration: orexin-A (hypocretin-1) was mixed in saline for IV injections and in sterile water for nasal application. […]

[2] = tested on: sleep deprived (30-36 hrs) rhesus monkeys; test: Multi-image DMS task after 30-36 hrs of sleep deprivation; type: in vivo, rhesus monkeys (Macaca mulatta)
Source text: as §1, §2
Sleep Deprivation Procedure: Sleep deprivation consisted of 30-36 hours of continuous sleep prevention supervised by laboratory personnel as previously verified using EEG recordings and sleep architecture to be a valid method of depriving animals of slow wave and REM sleep (Porrino 2005). Animals were maintained in a cage separate from their home cage in a continuously lighted room and kept awake with videos, music, occasional treats, gentle cage shaking, and interaction with technicians until their usual daily testing time. Animals were allowed 10 days between sleep deprivation episodes and were allowed to sleep after testing on each day following the 30-36 hr sleep deprivation episode. There were no residual effects of sleep deprivation on testing 24 hrs after the sleep deprivation procedure and animals returned to there normal sleep patterns on the next night following the sleep deprivation procedure.
Drug Administration: orexin-A (hypocretin-1) was mixed in saline for IV injections and in sterile water for nasal application. For IV administration orexin-A, (#003-30, Phoenix Pharmaceuticals, Mountain View, Calif.) was dissolved in physiological saline as a stock solution of 200 μg/ml which was then diluted in saline to inject 3 different doses of 2.5, 5.0 and 10.0 μg/kg via an indwelling catheter placed in either the femoral or jugular vein using a glass syringe. […]

sleep deprived monkeys = test: PET (FDG) local cerebral glucose metabolism (CMRglc) during DMS task in sleep deprived monkeys; type: in vivo, rhesus monkeys (Macaca mulatta)
Source text: Measurement of Local Rates of Cerebral Glucose Metabolism: Measurement of rates of cerebral glucose metabolism (CMRglc) were made in 8 monkeys in four different conditions: normal alert DMS task vehicle; DMS task-Sleep Deprivation vehicle; DMS task-Sleep Deprivation+orexin A (IV or nasal). All animals (n=8) were acclimated to the PET scan sessions to the extent that performance was not influenced by the injection or blood collection procedures. On the day of the scan the monkeys were placed in primate chairs and received a 30 sec injection of 3-5 mCi of [^18]-2-deoxy-2-fluoro-D-glucose (FDG). The DMS task was initiated 5-10 min later and was performed for a total of 40 minutes (80-100) trials while the FDG was incorporated and taken up by cells during performance in the DMS task. After 40 min animals were then anesthetized with ketamine (15 mg/kg, iv) and transported to the PET scanner. Following scan acquisition, monkeys were transported back to their home cages and continuously monitored until fully recovered. Effects of anesthesia and other factors associated with the PET scanning procedures were previously assessed and shown to not influence measures of isotope uptake.
To calculate glucose uptake tracer concentrations were measured in blood samples using an automated gamma well counter from three blood samples collected from the femoral vein at 10 minutes prior to tracer injection and 8 and 42 minutes post-injection. A population-averaged FDG blood curve (calculated for monkey) was scaled to the measured blood curve for the time period from injection to the end of the PET scan (Sokoloff 1977). Data were transformed to CMRglc based on the operational equation (Phelps 1979, Kennedy 1978). Rate constants (k1, k2, and k3) and lumped constant as determined in monkey by Kennedy et. al. 1978, along with a k4 value used in human studies (Phelps 1979). PET scans were performed with a General Electric (GE) Advance NXi PET scanner with a resolution of 4 mm and consisted of a five minute transmission scan acquired in 2D mode, followed by a ten minute emission scan acquired in 3D mode. The image reconstruction of the 3D data used the 3D-reprojection method with full quantitative corrections and smoothed using a 4 mm Gaussian filter transaxially and then segmented. Data were corrected for attenuation and reconstructed into 128 by 128 matrices using a Hanning filter with a 4mm cutoff transaxially and a ramp filter with an 8.5 mm cutoff axially.
PET data were analyzed with Statistical Parametric Mapping (SPM99) software (http://www.fil.ion.ucl.ac.uk/spm/) implemented in MATLAB (MathWorks, Natick, Mass.). Reconstructed images for each scan from each of the 8 monkeys were co-registered to corresponding structural MR images obtained on a 1.5-T MR scanner (GE Medical Systems, Milwaukee, Wis.) using automated image registration (Black 2001) and then transformed spatially into a standard space with an FDG template for rhesus monkeys constructed in our laboratory based on procedures of Black and colleagues (Paxinos 2003). Resultant images were smoothed using a 2 mm isotropic Gaussian kernel with a voxel size of 1×1×1 mm. Scans were normalized for differences in global activity by proportional scaling. Effects at each voxel were estimated according to the general linear model using the multi-subject conditions and covariates option in SPM. Statistical maps were created for comparisons of the […] different experimental conditions: Normal Alert Vehicle vs. Normal Alert orexin-A (IV or nasal); Sleep Deprivation vs. Normal Alert Vehicle; Sleep Deprivation vs. Sleep Deprivation+orexin-A (IV or nasal) and Sleep Deprivation+orexin-A IV vs. Sleep Deprivation+orexin-A nasal. Exploratory analyses used a minimum voxel height (magnitude) threshold of p<0.01 and a minimum cluster size of 50 voxels. […]

drowsy monkeys = test: DMS task in drowsy monkeys tested at the end of their normal day (4 PM); type: in vivo; conditions: for DMS performance at normal testing time: normal testing conditions (alert), nasal; for DMS performance impairment (high load and extended delay trials) in drowsy condition: tested at 4 PM, nasal spray 1.0 μg
Description: Monkeys were tested at the end of their normal day 12 hr day at 4 PM, approximately 6-8 hours later than their normal testing period, in what can be considered a “drowsy” condition just prior to the onset of their dark cycle at 6 PM (Price 2003, Thomas 2000). At this time animals were impaired in performance relative to their normal testing times (high cognitive load: F(1.72)=8.49. p<0.001; extended delays-very high cognitive load: F(1.72)=5.84, p<0.01) during the day. […] F refers to an analysis of variance and the numbers in parentheses are the degrees of freedom, essentially the number of subjects and conditions (−1). The F value is the an indication of the effect size as measured by the analysis of variance, which is translated into a probability (p) value. This is a standard test for significance. […] Performance was decreased in animals administered nasal sprays of saline at this time of testing. Nasal orexin-A administered at 4 PM improved performance back to normal levels.

[3] = nasal vs IV in the same monkeys

Substance: orexin-A: 33 residue neuropeptide hypocretin-1, residues 34-66 of human prepro-orexin; bought from Phoenix Pharmaceuticals (#003-30) (QPLPDCCRQKTCSCRLYELLHGAGNHAAGILTL; Orexin-A; UniProt O43612 34-66, looked up)
- DMS performance vs saline control [1]: slight but significant performance impairment
- DMS performance vs saline control ([1]; listed as Orexin-A): significant reduction
- DMS performance, dose relation ([1]; IV 2.5, 5.0 and 10.0 μg/kg): dose-related trend toward reduced performance
- DMS performance in normal alert sessions ([1]; nasal spray 1.0 μg): little or no effect on DMS performance; also recorded: no significant effects
- Monkeys that failed to show significant improvement on high load trials ([2]; IV 10.0 μg/kg): one of 8
- DMS performance on high cognitive load trials vs sleep deprived sessions ([2]; IV 5.0 and 10.0 μg/kg): significantly improved relative to sleep deprived sessions
- DMS performance on low cognitive load trials vs alert condition ([2]; IV 5.0 and 10.0 μg/kg): performed with the same efficiency as in the alert condition
- DMS performance vs alert non-sleep deprived levels ([2]; IV 5.0 and 10.0 μg/kg): neither dose restored performance to alert non-sleep deprived levels
- DMS performance vs sleep deprived saline sessions ([2]; IV 5.0 and 10.0 μg/kg): systematically increased performance; also recorded: partially reversed the detrimental effects on performance
- DMS performance on low cognitive load trials, nasal vs IV ([2]; nasal 1.0 μg vs IV 10.0 μg/kg): no difference between IV and nasal orexin-A
- DMS performance overall and on high cognitive load trials, nasal vs IV ([2]; nasal 1.0 μg vs IV 10.0 μg/kg): significantly more effective
- Overall DMS performance vs sleep deprivation saline ([2]; nasal 1.0 μg, overall, low and high load trials): reversed the detrimental effects of 30-36 hr sleep deprivation
- DMS performance on high cognitive load trials ([2]; nasal spray 1.0 μg): elevated performance above normal alert levels
- DMS performance on low cognitive load trials ([2]; nasal spray 1.0 μg): returning performance to normal alert levels
- DMS performance on extended delay trials ([2]; nasal spray 1.0 μg, extended delays (90-120 sec)): significantly above extended delay trials in both control sleep deprived and normal alert sessions; also recorded: significantly improved
- Local CMRglc in DPFC vs sleep deprivation vehicle (sleep deprived monkeys; IV 10.0 μg/kg): significant increases
- Local CMRglc in DStr vs sleep deprivation vehicle (sleep deprived monkeys; IV 10.0 μg/kg): significant increases
- Local CMRglc in MTL vs sleep deprivation vehicle (sleep deprived monkeys; IV 10.0 μg/kg): significant decrease
- Local CMRglc in Thal vs sleep deprivation vehicle (sleep deprived monkeys; IV 10.0 μg/kg): significant increases
- Local CMRglc in DPFC vs sleep deprivation vehicle (sleep deprived monkeys; nasal spray mist 1.0 μg): significantly elevated bilaterally
- Local CMRglc in MTL vs sleep deprivation vehicle (sleep deprived monkeys; nasal spray mist 1.0 μg): significant decreases
- Change of CMRglc in DPFC, nasal vs IV (sleep deprived monkeys; [3]): greater increases in CMRglc bilaterally
- Change of CMRglc in DStr, nasal vs IV (sleep deprived monkeys; [3]): greater increases in CMRglc bilaterally
- Change of CMRglc in MTL, nasal vs IV (sleep deprived monkeys; [3]): decreased CMRglc
- Change of CMRglc in Thal, nasal vs IV (sleep deprived monkeys; [3]): greater increases in CMRglc bilaterally
- DMS performance at normal testing time (drowsy monkeys): no effect on performance
- DMS performance at normal testing time (drowsy monkeys; listed as hyocretin): no effect on cognitive performance
- DMS performance impairment (high load and extended delay trials) in drowsy condition (drowsy monkeys): reversed completely
- DMS performance impairment (high load and extended delay trials) in drowsy condition (drowsy monkeys; listed as hyocretin): reverses cognitive deficits
